# Assay results as given in patent publication US10220029B2, “Pharmaceutical composition comprising glutarimide derivatives and use thereof in the treatment of eosinophilic diseases” (OBSCHESTVO S ORGANICHENNOI OTVETSTVENNOSTIYU …, priority 2013, dated 2019).
# Marks after values point to notes of the source that are not given here.
# Tests used:
# Assay type in all cases: in vivo, guinea pig
# [1] = tested on: model of bronchial asthma in guinea pigs; assay: Content of cell elements in BAL in the model of bronchial asthma in guinea pigs
# Protocol: (§1) Bronchial asthma in guinea pigs was induced by a standard method [Ricciardolo F L, Nijkamp F, De Rose V, Folkerts G. The guinea pig as an animal model for asthma// Current Drug Targets. 2008 June; 9(6):452-65]. The animals were immunized by one parenteral administration of 0.5 mL of a solution comprising 100 μg/mL ovalbumin (Sigma) and 100 mg/mL aluminium hydroxide. Intact animals received a physiological saline solution in an amount of 0.5 mL.
# (§2) On days 29, 30 and 31, hyperactivity of the respiratory airways was provoked by inhalation administration of ovalbumin in ascending concentrations of 0.1, 0.3, and 0.5 mg/mL on days 1, 2, and 3 of the provocation, respectively. The inhalation lasted 5 minutes or until asphyxia symptoms became apparent (fall to one side). On day 32, the animals received a challenging dose of ovalbumin (1 mg/mL) for 5 minutes, while assessing a bronchospastic reaction.
# (§3) The studied compounds were administered to the animals once daily every day for 6 or 10 days; the administration was terminated two days before the administration of the challenging dose of antigen.
# (§4) The bronchoalveolar lavage (BAL) and cardiac cavity blood were derived from the animals 24 hours after administration of the challenging dose. The BAL was collected under anesthesia by lavaging the lungs with 5 mL of a physiological saline solution heated to 37° C. through the trachea, using a syringe dosing device.
# The absolute number of cell elements in 1 μL of the lavage (cytosis) was counted in the bronchoalveolar lavage, using the Goryaev camera. Then, the BAL was centrifuged at 200 g for 10 minutes. The residue was used to prepare swabs that were fixed in methanol and stained according to Romanovsky-Giemsa to count endopulmonary cytogram.
# (§5) The study comprised 3 experiments, wherein the first one was directed to the evaluation of the effect of claimed compounds 1-6 on the cell composition of the BAL, the second and the third experiments were aimed at evaluating the effect of compounds 1 and 2 on the cell composition of the BAL, the cell composition of the blood, and on the bronchospasm severity.
# [2] = tested on: model of leukotriene-induced eosinophilic lung inflammation in guinea pigs; assay: Content of cell elements in BAL in the model of leukotriene-induced eosinophilic lung inflammation in guinea pigs; settings: four times, BAL 48 hours after LTD4, n = 8
# From the text: The model of leukotriene-induced eosinophilic lung inflammation in guinea pigs was realized by a standard method [Underwood DC1, Osborn R R, Newsholme S J, Torphy T J, Hay D W. Persistent airway eosinophilia after leukotriene (LT) D4 administration in the guinea pig: modulation by the LTD4 receptor antagonist, pranlukast, or an interleukin-5 monoclonal antibody// Am J Respir Crit Care Med. 1996 October; 154(4 Pt 1):850-7]. A solution of leukotriene D4 (LTD4, Cayman Chemical, USA) at a concentration of […] (a flow rate of 250 mL/hr) was inhaled to male guinea pigs (250-300 g) under conditions of a double-chamber plethysmograph (Emka Technologies, France) for one minute. The studied compound was administered to the animals by the intragastric route four times: 24 hours and 1 hour before and 24 hours and 45 hours after the inhalation of LTD4. The reference preparation, montelukast (0.8 mg/kg), was administered one time by the intragastric route one hour before the inhalation of LTD4. Bronchoalveolar lavage was taken 48 hours after the inhalation of LTD4, and the total lymphocyte count and leukocyte formula were determined in the lavage. The number of guinea pigs in a group was 8.
# [3] = tested on: model of bronchial asthma in guinea pigs; assay: Content of cell elements in the blood in the model of bronchial asthma in guinea pigs; settings: Table 6 Experiment No. 1, 10 times, n = 8
# Protocol: as §1, §2, §3, §4
# The blood was analyzed with a hemocytometer to determine leykoformula.
# as §5
# [4] = tested on: model of bronchial asthma in guinea pigs; assay: Severity of bronchospasm in the model of bronchial asthma in guinea pigs; settings: Experiment No. 1, 10 times, n = 8
# Protocol: as §1, §2, §3
# The bronchospastic reaction was assessed by a change in the rate and depth of the respiratory movements and by the asphyxia symptom such as fall to one side. Spirogram was registered by laboratory experimental equipment (ADInstruments, Australia), using a base recording station (PowerLab 8sp.) and software LabCart. The registration was made using airflow sensors for laboratory animals and a spirograph with an integrated amplifier (ADInstruments).
# as §5
# [5] = Table 4, 14 mg/kg, 10 times of administration, n = 9
# [6] = Table 5 Experiment No. 1, 0.045 mg/kg, 10 times, n = 8
# [7] = Table 5 Experiment No. 1, 0.14 mg/kg, 10 times, n = 8
# [8] = Table 5 Experiment No. 1, 14 mg/kg, 10 times, n = 8
smiles,measurement,setting,value
"O=C1CCCC(=O)N1CCc1cnc[nH]1 [Compound 1, 1-(2-(1H-imidazol-4-yl)ethyl)piperidine-2,6-dione]",Eosinophils in BAL,[1]; [5],0.89 ± 0.23*& 10^9/L
same,Lymphocytes in BAL,[1]; [5],0.70 ± 0.13* 10^9/L
same,Monocytes in BAL,[1]; [5],0.35 ± 0.09* 10^9/L
same,Neutrophils in BAL,[1]; [5],0.36 ± 0.09 10^9/L
same,Cytosis in BAL,[1]; [6],12.8 ± 0.2* 10^9/L
same,Eosinophils in BAL,[1]; [6],0.45 ± 0.07*& 10^9/L
same,Lymphocytes in BAL,[1]; [6],0.10 ± 0.04& 10^9/L
same,Monocytes in BAL,[1]; [6],0.52 ± 0.092* 10^9/L
same,Neutrophils in BAL,[1]; [6],0.19 ± 0.08 10^9/L
same,Cytosis in BAL,[1]; [7],10.5 ± 0.2*& 10^9/L
same,Eosinophils in BAL,[1]; [7],0.41 ± 0.10*& 10^9/L
same,Lymphocytes in BAL,[1]; [7],0.13 ± 0.04& 10^9/L
same,Monocytes in BAL,[1]; [7],0.43 ± 0.076* 10^9/L
same,Neutrophils in BAL,[1]; [7],0.07 ± 0.01 10^9/L
same,Cytosis in BAL,[1]; [8],14.6 ± 0.3* 10^9/L
same,Eosinophils in BAL,[1]; [8],0.45 ± 0.12*& 10^9/L
same,Lymphocytes in BAL,[1]; [8],0.15 ± 0.026*& 10^9/L
same,Monocytes in BAL,[1]; [8],0.7 ± 0.16* 10^9/L
same,Neutrophils in BAL,[1]; [8],0.15 ± 0.03* 10^9/L
same,"Eosinophils, content of cell elements in 1 μL of BAL",[2]; 0.14 mg/kg intragastric,916 ± 144*& in 1 μL of BAL
same,"Leukocytes, content of cell elements in 1 μL of BAL",[2]; 0.14 mg/kg intragastric,2638 ± 463*& in 1 μL of BAL
same,"Lymphocytes, content of cell elements in 1 μL of BAL",[2]; 0.14 mg/kg intragastric,112 ± 27 in 1 μL of BAL
same,"Macrophages, content of cell elements in 1 μL of BAL",[2]; 0.14 mg/kg intragastric,1360 ± 323 in 1 μL of BAL
same,"Neutrophils, content of cell elements in 1 μL of BAL",[2]; 0.14 mg/kg intragastric,249 ± 50 in 1 μL of BAL
same,"Eosinophils, content of cell elements in 1 μL of BAL",[2]; 1.4 mg/kg intragastric,856 ± 288*& in 1 μL of BAL
same,"Leukocytes, content of cell elements in 1 μL of BAL",[2]; 1.4 mg/kg intragastric,3413 ± 1022 in 1 μL of BAL
same,"Lymphocytes, content of cell elements in 1 μL of BAL",[2]; 1.4 mg/kg intragastric,144 ± 89 in 1 μL of BAL
same,"Macrophages, content of cell elements in 1 μL of BAL",[2]; 1.4 mg/kg intragastric,2134 ± 705 in 1 μL of BAL
same,"Neutrophils, content of cell elements in 1 μL of BAL",[2]; 1.4 mg/kg intragastric,279 ± 97 in 1 μL of BAL
same,"Eosinophils, content of cell elements in 1 μL of BAL",[2]; 14 mg/kg intragastric,580 ± 124*& in 1 μL of BAL
same,"Leukocytes, content of cell elements in 1 μL of BAL",[2]; 14 mg/kg intragastric,2250 ± 373*& in 1 μL of BAL
same,"Lymphocytes, content of cell elements in 1 μL of BAL",[2]; 14 mg/kg intragastric,71 ± 28 in 1 μL of BAL
same,"Macrophages, content of cell elements in 1 μL of BAL",[2]; 14 mg/kg intragastric,1444 ± 258 in 1 μL of BAL
same,"Neutrophils, content of cell elements in 1 μL of BAL",[2]; 14 mg/kg intragastric,155 ± 36 in 1 μL of BAL
same,Banded neutrophils in the blood,[3]; 0.045 mg/kg,0.31 ± 0.10 10^9/L
same,Basophils in the blood,[3]; 0.045 mg/kg,0 ± 0 10^9/L
same,Cytosis in the blood,[3]; 0.045 mg/kg,9.03 ± 1.40& 10^9/L
same,Eosinophils in the blood,[3]; 0.045 mg/kg,0.19 ± 0.04& 10^9/L
same,Lymphocytes in the blood,[3]; 0.045 mg/kg,4.80 ± 0.84* 10^9/L
same,Monocytes in the blood,[3]; 0.045 mg/kg,0.29 ± 0.08 10^9/L
same,Segmented neutrophils in the blood,[3]; 0.045 mg/kg,2.92 ± 0.65 10^9/L
same,Banded neutrophils in the blood,[3]; 0.14 mg/kg,0.19 ± 0.05& 10^9/L
same,Basophils in the blood,[3]; 0.14 mg/kg,0 ± 0 10^9/L
same,Cytosis in the blood,[3]; 0.14 mg/kg,9.11 ± 1.07*& 10^9/L
same,Eosinophils in the blood,[3]; 0.14 mg/kg,0.09 ± 0.03& 10^9/L
same,Lymphocytes in the blood,[3]; 0.14 mg/kg,5.25 ± 0.89* 10^9/L
same,Monocytes in the blood,[3]; 0.14 mg/kg,0.33 ± 0.06* 10^9/L
same,Segmented neutrophils in the blood,[3]; 0.14 mg/kg,2.23 ± 0.58& 10^9/L
same,Banded neutrophils in the blood,[3]; 14 mg/kg,0.27 ± 0.06* 10^9/L
same,Basophils in the blood,[3]; 14 mg/kg,0 ± 0 10^9/L
same,Cytosis in the blood,[3]; 14 mg/kg,8.90 ± 0.25*& 10^9/L
same,Eosinophils in the blood,[3]; 14 mg/kg,0.13 ± 0.04& 10^9/L
same,Lymphocytes in the blood,[3]; 14 mg/kg,4.45 ± 0.25* 10^9/L
same,Monocytes in the blood,[3]; 14 mg/kg,0.33 ± 0.06* 10^9/L
same,Segmented neutrophils in the blood,[3]; 14 mg/kg,3.66 ± 0.22* 10^9/L
same,"The number of animals with moderate bronchospasm (without acute phase, with subacute phase, with breath management)",[4]; 0.045 mg/kg,1
same,"The number of animals with moderate bronchospasm (without acute phase, with subacute phase, without breath management)",[4]; 0.045 mg/kg,2
same,The number of animals with severe bronchospasm (in acute and subacute phase),[4]; 0.045 mg/kg,0
same,The number of animals without bronchospasm,[4]; 0.045 mg/kg,5
same,"The number of animals with moderate bronchospasm (without acute phase, with subacute phase, with breath management)",[4]; 0.14 mg/kg,1
same,"The number of animals with moderate bronchospasm (without acute phase, with subacute phase, without breath management)",[4]; 0.14 mg/kg,0
same,The number of animals with severe bronchospasm (in acute and subacute phase),[4]; 0.14 mg/kg,0
same,The number of animals without bronchospasm,[4]; 0.14 mg/kg,7
same,"The number of animals with moderate bronchospasm (without acute phase, with subacute phase, with breath management)",[4]; 14 mg/kg,0
same,"The number of animals with moderate bronchospasm (without acute phase, with subacute phase, without breath management)",[4]; 14 mg/kg,2
same,The number of animals with severe bronchospasm (in acute and subacute phase),[4]; 14 mg/kg,1
same,The number of animals without bronchospasm,[4]; 14 mg/kg,5
